The source of these data is patent US5169769A, “Method of hydroxylating substituted 3-aminopyridinones using mammalian tissue” (Merck & Co., Inc., priority 1991, dated 1992).

For the assay, the target named is T1, recombinant HIV reverse transcriptase (HIV RTR) (Human immunodeficiency virus type 1 group M subtype B, UniProt P04585).
T1 construct: recombinant HIV reverse transcriptase (HIV RTR)
In words: Reverse Transcriptase Assay: incorporation of tritiated deoxyguanosine monophosphate into acid-precipitable cDNA. The following applies: purified HIV RTR; poly r(C).oligo d(G)12-18 and dGTP at about Km; 37° C. for 45 minutes; read-out: calculated IC50. It counts as biochemical. As for the experimental part: Reverse Transcriptase Assay
The assay measures the incorporation of tritiated deoxyguanosine monophosphate by recombinant HIV reverse transcriptase (HIV RTR) (or other RT) into acid-precipitable cDNA at the Km values of dGTP and poly r(C).cndot.oligo d(G)12-18. Compounds (I) and (II) inhibit this incorporation.
Thirty uL of a reaction mixture containing equal volumes of: 500 mM Tris.cndot.HCl (pH 8.2), 300 mM MgCl2, 1200 mM KCl, 10 mM DTT, 400 μg/mL poly r(c).cndot.oligo d(G) [prepared by dissolving 1.5 mg (25 U) poly r(C).cndot.oligo d(G) in 1.5 ml sterile distilled H2 O and diluting to 400 μg/ml], 0.1 μCi/μl [^3 H] dGTP, 160 μM dGTP, were added to 10 μl sterile distilled H2 O, 2.5 μl of potential inhibitor. Ten μL of 3.2 nM purified HIV RTR were added to start the reaction. The mixture was incubated at 37° C. for 45 minutes.
After incubation was complete, the tubes were cooled in ice for 5 minutes. Ice-cold 13% TCA containing 10 mM NaPPi (200 μl) was added and the mixture incubated on ice for 30 minutes. The precipitated cDNA was removed by filtration using presoaked glass filters [TCA, NaPPi ]. The precipitate was then washed with 1N HCl, 10 mM NaPPi. The filter discs were then counted in a scintillation counter. […]
Compounds (I) and (II) were evaluated using the methodology described above.

The IC50 is the point on the concentration scale where inhibition reaches its midpoint. For the molecule `CCc1cc(NCc2nc3c(C)ccc(C)c3o2)c(=O)[nH]c1CO` [Compound (II), 3-[(4,7-dimethylbenzoxazol-2-yl)methylamino]-5-ethyl-6-hydroxymethyl-2(1H)-pyridinone], the IC50 is roughly 33 nM.

For the molecule `Cc1[nH]c(=O)c(NCc2nc3c(C)ccc(C)c3o2)cc1C(C)O` (centres unmarked) [Compound (I), 3-[(4,7-dimethylbenzoxazol-2-yl)methylamino]-5-(1-hydroxyethyl)-6-methyl-2(1H)-pyridinone], the IC50 is roughly 405 nM.
